We go through 86 compounds from a melting point compilation (Tetko et al.; mined from patent text by program, amines drawn as free bases though some values may be those of a salt).

`Nc1nc(Cl)cc(C#Cc2ccc3c(C(=O)Nc4cccc(C(F)(F)F)c4)cccc3c2)n1`: the melting point was in the range of 171 to 175 °C.
The same measure for `OCc1cc(-c2ccccc2)cs1`: 112 to 113 °C; for `COCCNC(=O)c1cccc(-c2ccc(F)c3cc(Cc4cc(F)cc(Cl)c4)sc23)c1`: 90 to 110 °C; for `CC(C(=O)O)c1ccc(Nc2nc3ccccc3[nH]2)cc1` (stereo unspecified): 355 to 358 °C.
Take `O=C(NCC#CCN1CCCC1)N1c2ccccc2-c2noc3c2C1CCC3` (stereo unspecified): the melting point amounted to 132 °C.
In the case of `CCOC(=O)C1=CC(=O)CC(c2ccc(Cl)cc2)N1` (stereo unspecified) it was 93 to 94 °C; in that of `CSC(=C[N+](=O)[O-])NCCCCc1c[nH]cn1`, 157 to 158 °C; in that of `COC(=O)C1=Cc2cc(-c3ccc4c(c3)OCO4)ccc2S(=O)(=O)CC1`, 185 to 187 °C.
The same measure for `COC(=O)C#CCOC(N)=O`: 113 to 114 °C.
In the case of `COc1nc(C(F)(F)F)cc(=O)n1-c1cc(O)c(Br)cc1F` it was 132 to 136 °C.
As for `CCCOCCOC(=O)C1=C(C)NC(C)=C(C(=O)C(C)S(=O)(=O)NC)C1c1cccc([N+](=O)[O-])c1` (stereo unspecified), the melting point was in the range of 120 to 123 °C.
Regarding `CN1CCNC(c2ccccc2)c2cc([N+](=O)[O-])ccc21` (stereo unspecified), the melting point lay within 96 to 99 °C.
In the case of `Cn1cc2c(n1)Nc1ccc(Cl)cc1NC2=O` it was more than 260 °C; in that of `CC(=O)NCC1CN(c2ccc(N3CCN(c4nnc(C)o4)CC3)c(F)c2)C(=O)O1` (stereo unspecified), 212 to 214 °C.
The same measure for `COc1cc(N2CCOCC2)ccc1Nc1nc(Nc2ccc(OC)c3c2N(C)C(=O)CCC3)ncc1Cl`: 230 to 232 °C; for `CC(C)NC(=O)NC[C@H](C)NC(=O)OC(C)(C)C`: 101 °C.
In the case of `COc1cc(F)ccc1OCCN1C(=O)c2ccccc2C1=O` it was 102 to 104 °C; in that of `CN1CC[C@]2(c3ccccc3)CCCC[C@H]2C1` (relative stereo), 72 to 73 °C; in that of `CC1(C)CC(N(CCO)CC(O)COc2ccc(C(C)(C)c3ccc(OCC(O)CN(CCO)C4CC(C)(C)NC(C)(C)C4)cc3)cc2)CC(C)(C)N1` (stereo unspecified), 69 to 71 °C.
Compound `CC(C)c1ccc(Oc2ccc(C(=O)C=CC(=O)O)cc2)cc1` displayed a melting point of 133 to 134 °C.
The same measure for `O=C1c2cc(O)ccc2OCC1Oc1ccccc1` (stereo unspecified): 142 to 146 °C; for `CC1CCCCN1c1nc(-c2ccc(Cl)cc2)c(CCC(=O)O)o1` (stereo unspecified): 126 to 128 °C.
In the case of `CN1CCN(c2cccc3c2C[C@H](NC(=O)c2ccc(C(F)(F)F)cc2C(F)(F)F)CO3)CC1` it was 202 to 203 °C; in that of `Cc1oc(-c2ccco2)nc1COc1ccc(COc2nn(Cc3ccccc3)cc2CO)cc1OCc1ccccc1`, 145 to 146 °C; in that of `Cc1cc2c(c3c1NC(=O)CC3)O[C@@H](CN)[C@H]2C` (racemic), more than 300 °C.
The same measure for `N#Cc1ccc(N2CCCN(c3ccnc4sc(C(N)=O)c(N)c34)CC2)cc1`: 151 to 153 °C; for `COC(=O)c1cncc(OC2SCC(OC(C)=O)C(OC(C)=O)C2OC(C)=O)c1` (stereo unspecified): 50 °C.
For the compound `O=C(OC(c1ccccc1)c1ccccc1)C12CCC1CN(Cc1ccccc1)C2` (stereo unspecified), the melting point was 96 to 99 °C.
In the case of `NC(=O)CCC1CN(c2ccc(C3=CCN(C=O)CC3)c(F)c2)C(=O)O1` (stereo unspecified) it was 148 to 151 °C.
Take `O=C(CCCN1CCOCC1)c1ccc2c(c1)Cc1cc(C(=O)CCCN3CCOCC3)ccc1O2`: the melting point was in the range of 110 to 112 °C.
In the case of `Cc1cc2c(c3ccc(=O)[nH]c13)OC(CNC(=O)CCNC(=O)OCc1ccccc1)C2` (stereo unspecified) it was 233 to 234 °C; in that of `COc1ccc(-c2nc(-c3ccccc3)c(N(c3ccccc3)c3ccccc3)s2)cc1`, 152 to 155 °C; in that of `O=S(=O)(Nc1ccc2c(OCc3cccc(-c4cc(Cl)cc(Cl)c4)c3)cccc2c1)C(F)(F)F`, 142 to 143 °C.
The compound `CCCn1nc2c(N)nc3ccccc3c2c1CCc1ccccc1` displayed a melting point of 175 to 176 °C.
In the case of `CCOC(=O)CN(CCc1ccccc1)C(=O)CCc1nc2c(F)c(F)cc(F)c2s1` it was 78 to 81 °C; in that of `CC(C)CC(C)(C(=O)NC1CCCCCCCCCCNC1=O)c1cccc(Cl)c1S` (stereo unspecified), 143 to 148 °C; in that of `CCCCNC(=O)c1cc(S(=O)(=O)NC23CC4CC(CC(C4)C2)C3)cc2c1OCCO2`, 147 °C.
In the case of `Cc1cccc(Cl)c1C(=O)N[C@@H](Cc1ccc(-c2c(C(F)(F)F)cc(C)n(C)c2=O)cc1)C(=O)O` it was 220 to 223 °C; in that of `CCOC(=O)c1nc(C=Cc2cccc(C(F)(F)F)c2)oc1C`, 103 to 104 °C; in that of `COC(=O)c1ccc(-c2nc(-c3ccc(Cl)s3)cs2)cc1`, 171 to 172 °C.
The compound `CN1C(=O)c2cnc(-c3ccccc3)nc2Nc2ccccc21` came in with a melting point of 227 °C.
The same measure for `CN(C)C(CNc1c(C#N)cnn2cccc12)c1ccco1` (stereo unspecified): 107 °C; for `CC(=O)OCc1nc2c(NCc3c(C)cccc3C)cc(Br)cc2n1C`: 188 to 190 °C.
The same measure for `CCOc1ccc2cc(N3CC(COC)OC3=O)ccc2c1` (stereo unspecified): 130 °C; for `COC(=O)c1cc(C(=O)N(C)CC(=O)N(C)C)c2cc(Cc3ccc(F)cc3)cnc2c1O`: 99 to 100 °C; for `Cc1nc(N)nc(N)c1C=CC(C)(C)c1ccc(F)cc1`: 164 to 168 °C.
`CC1(C)C(=O)Nc2ccc(NC(=O)c3ccncc3)cc21` gave a melting point of more than 300 °C.
The same measure for `O=C1C(=Cc2ccncc2)C(=O)c2ccccc21`: 152 to 157 °C; for `COc1cc(OCCCO)c(C=CC(=O)c2ccc(S(=O)(=O)Nc3cc(C)on3)cc2)cc1-c1cccs1`: 178 to 182 °C.
`O=c1ccc(-c2cc(F)cc(F)c2)n[nH]1` displayed a melting point of 230 °C.
In the case of `CCCCCCCCc1cnc(-c2ccc(C#N)cc2)nc1` it was 66.1 to 66.5 °C; in that of `NC(=O)C[C@H](NC(=O)CCc1ccc(OCc2ccccc2)cc1OCc1ccccc1)C(=O)N1CCN(c2ccccc2)CC1`, 96 to 98 °C; in that of `CCNc1nc2c(N)nc3ccccc3c2n1CC(C)C`, 188 to 190 °C.
The same measure for `COCCCOc1ccc(/C=C/C(=O)O)c(Oc2ncc(C(F)(F)F)cc2Cl)c1`: 131 to 133 °C; for `CN1C(=O)C2(C(=O)N(Cc3ccccn3)c3ccccc32)c2cc3c(cc21)OCCO3` (stereo unspecified): 87 to 89 °C.
`FC(F)(F)c1cc(NC(=S)N[C@@H]2CCCC[C@H]2NCc2ccccc2)cc(C(F)(F)F)c1` gave a melting point of 140 to 141 °C.
The same measure for `Clc1ccc2c(c1Cl)C=NCC2`: 196 to 200 °C; for `CCCCCCCCCCNC(=O)c1cc(C(=O)NCCCCCCCCCC)cc(N(CCCC(=O)OCC)CCCC(=O)OCC)c1`: 75 to 77 °C.
Compound `CCCCCOC1=C(c2ccccc2)C(CCC(=O)O)OC1=O` (stereo unspecified) displayed a melting point of 86 to 87 °C.
The same measure for `CC(=O)Nc1ccc(C=C2CCc3ncc(C)cc3C2=O)cc1`: 226 to 228 °C; for `COc1cc(C=CC=O)ccc1OCc1csc(-c2ccccc2)n1`: 115 to 116 °C.
In the case of `O=C(NCc1ccc(Cl)cc1)c1cnc2sc(Br)cc2c1O` it was 234 to 236 °C.
In the case of `CCOc1ccc(-c2noc3c(Cl)c(OC)ccc23)c(F)c1` it was 151 to 152 °C; in that of `C=C1CCN(c2ccc(Cl)cc2)C1=O`, 119 to 120 °C; in that of `O=C(O)c1cc2c(cn1)[nH]c1ccccc12`, 307 to 309 °C.
In turn, `CCS(=O)c1cccnc1S(=O)(=O)NC(C)(C)C` (stereo unspecified) had a melting point of 129 to 131 °C.
`CCCN(CCC)C(=O)Cn1c(-c2ccc([N+](=O)[O-])cc2)nc2cccnc21` displayed a melting point of 205 to 208 °C.
The same measure for `O=C(C=C(S)c1ccccc1)Nc1nc2ccccc2s1`: 168 to 172 °C; for `CCCCCCCCCCCCOC(=O)c1ccc(O)c(N)c1`: 86 to 89 °C.
In the case of `CN(C)Cc1cc(Cl)ccc1OCCN(C)Cc1ccc(C(N)=O)cc1`, the melting point fell in the range of 108 to 109 °C.
In the case of `CC(=O)C(C)(C)C(C=C(Cl)C(F)(F)F)OS(C)(=O)=O` (stereo unspecified) it was 50 to 52 °C.
The same measure for `COc1cc2c(cc1F)CCC2=O`: 152 to 154 °C; for `CCCCC1(N(C)C)CC=C(c2[nH]c3ccccc3c2CCN2C(=O)c3ccccc3C2=O)CC1` (stereo unspecified): 125 to 130 °C; for `Cn1nc(N=Cc2ccccc2)nc1NCC(O)COc1cccc(CN2CCCCC2)c1` (stereo unspecified): 53 to 57 °C.
In the case of `COc1ccc(-c2c[nH]cc2C#N)cc1OC` it was 212 to 214 °C; in that of `O=C1NCCC1=Cc1ccccc1OCC(O)CN1CCC(c2ccc3c(c2)CCCC3)CC1` (stereo unspecified), 157 to 159 °C.
`CNC(=O)N1CC[C@H](OCc2cc(C(F)(F)F)cc(C(F)(F)F)c2)[C@H](Cc2ccccc2)C1` (relative stereo) returned a melting point of 160 to 161 °C.
As for `Fc1ccc(Nc2nnc(Cc3ccncc3)c3ccccc23)cc1Cl`, the melting point was 185 to 187 °C.
In the case of `Cc1cc(C(=O)OC(C)(C)C)ccc1[N+](=O)[O-]` it was 56 to 58 °C.
The same measure for `Nc1nc2nc(SCc3ccccc3)nc(Cl)c2s1`: 217 to 218 °C; for `CCN(CC1CCCC1)c1nc2c(cc1CN(Cc1cc(C(F)(F)F)cc(C(F)(F)F)c1)c1nnn(C)n1)c(C)nn2C`: 84 to 86 °C; for `CCOC(=O)c1cn(CCBr)c2nc(N3CCN(C(C)=O)CC3)ncc2c1=O`: 202 to 204 °C.
In the case of `CC(C)OC(=O)Cn1c(=O)n(C)c(=O)n(-c2cc(-n3c(=O)n4n(c3=S)CCCC4)c(F)cc2Cl)c1=O` it was 136 to 142 °C; in that of `CCCc1c(OCc2ccccc2)ccc2c(=O)cc(CO)[nH]c12`, 197 to 199 °C.
As to `C=CCOC(=O)c1ccc(COC(=O)Nc2cnc(-c3ccccc3)n(CC(=O)NC(Cc3ccccc3)C(O)C(F)(F)F)c2=O)cc1` (stereo unspecified), the melting point is 126 to 135 °C.
The compound `CC(C)CCN1C(=O)C(NC(=O)Oc2cccc(N(C)C)c2)C(=O)N(c2ccccc2)c2cc(Cl)c(Cl)cc21` (stereo unspecified) showed a melting point of 163 to 164 °C.
